The nature of assay [1]: Inhibition of SAG-induced hedgehog pathway in mouse SHH-LIGHT2 cells. The class given is cell-based.
A short description of assay [2]: Antiproliferative activity against mouse medulloblastoma cells expressing wild type SMO. The note with it: Medulloblastoma cell. The class given is functional.
Assay [3] can be described thus: Inhibition of hedgehog pathway in mouse C3H10T1/2 cells assessed as alkaline phosphatase enzyme activity. The class given is cell-based. The note with it: c3h 10t1/2.
In assay [4] the target is T1, Sonic hedgehog protein (Mus musculus, UniProt Q62226). Briefly: Inhibition of SHh in mouse LIGHT2 cells. The class given is cell-based.
T1 sequence (Q62226 25-198 limits assumed): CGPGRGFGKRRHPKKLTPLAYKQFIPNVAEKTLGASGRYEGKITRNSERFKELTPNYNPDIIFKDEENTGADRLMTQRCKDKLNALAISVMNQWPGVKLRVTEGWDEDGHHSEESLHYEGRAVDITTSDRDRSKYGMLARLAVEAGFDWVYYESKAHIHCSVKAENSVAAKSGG
The nature of assay [5]: Cytotoxicity against human SK-N-BE(2) cells after 72 hrs by fluorometric microculture cytotoxicity assay. The note with it: SKNBE2, 72 h, pooled result: one value given for 7 cell lines, strains, targets or settings. The class given is functional.
The target of a further assay is Protein smoothened (Homo sapiens, UniProt Q99835, D473H). The assay is described as follows: Inhibition of Smo D473H mutant (unknown origin) expressed in mouse C3H10T1/2 cells by luciferase assay. The class given is cell-based, C3H 10T1/2.
Sequence of Protein smoothened (Q99835 28-787 D473H limits assumed): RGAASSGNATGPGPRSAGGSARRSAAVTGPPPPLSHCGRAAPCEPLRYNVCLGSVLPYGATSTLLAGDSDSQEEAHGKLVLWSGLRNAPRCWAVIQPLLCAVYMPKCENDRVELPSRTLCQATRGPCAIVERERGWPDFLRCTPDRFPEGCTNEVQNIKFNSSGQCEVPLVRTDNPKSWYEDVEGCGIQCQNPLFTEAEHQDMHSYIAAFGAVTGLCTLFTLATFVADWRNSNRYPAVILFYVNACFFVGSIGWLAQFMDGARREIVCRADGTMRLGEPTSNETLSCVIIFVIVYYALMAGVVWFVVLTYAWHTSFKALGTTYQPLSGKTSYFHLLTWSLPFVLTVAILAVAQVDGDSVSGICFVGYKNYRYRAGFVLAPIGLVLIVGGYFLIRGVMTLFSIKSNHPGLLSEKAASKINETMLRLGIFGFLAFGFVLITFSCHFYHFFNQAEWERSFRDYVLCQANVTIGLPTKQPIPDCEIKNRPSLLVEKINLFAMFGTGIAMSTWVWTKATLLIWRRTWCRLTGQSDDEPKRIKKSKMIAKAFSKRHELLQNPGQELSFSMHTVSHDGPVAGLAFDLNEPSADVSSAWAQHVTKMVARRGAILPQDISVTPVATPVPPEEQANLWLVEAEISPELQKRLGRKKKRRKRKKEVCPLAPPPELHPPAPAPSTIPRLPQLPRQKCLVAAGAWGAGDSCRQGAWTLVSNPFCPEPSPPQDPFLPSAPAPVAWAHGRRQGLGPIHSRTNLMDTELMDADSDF
Assay [6] is described as follows: Decrease of cell density in human CCC cells at 50 nM up to 24 hrs. The class given is functional. The arrangement: scale not given: the % may be the effect or the level left.
For assay [7], the target named is T1, Sonic hedgehog protein. Briefly: Inhibition of SHh palmitoylation in mouse NIH3T3 cells. The class given is cell-based.
Assay [8] deals with T1, Sonic hedgehog protein. Briefly: Inhibition of SHh in mouse NIH3T3 cells assessed as Gli activation. The class given is cell-based.
The nature of assay [9]: Inhibition of SHH-mediated mouse C3H10T1/2 cell differentiation to osteoblasts. The note with it: c3h 10t1/2.

A word on the IC50: it is the midpoint of a concentration-inhibition curve. For the compound `N#C/C(C(=O)c1ccc(Cl)cc1Cl)=C1\NC(=O)c2ccccc2N1`, the IC50 in assay [1] is under 10000 nM. Consider `COCCOC(=O)C1=C(C)NC2=C(C(=O)CC(c3ccccc3OC)C2)C1c1cccc(O)c1` (centres undefined), for which, in assay [1], the IC50 was under 10000 nM. Regarding `CCC(C)n1ncn(-c2ccc(N3CCN(c4ccc(OCC5COC(Cn6cncn6)(c6ccc(Cl)cc6Cl)O5)cc4)CC3)cc2)c1=O` (centres undefined) [ITRACONAZOLE], half-maximal inhibition in assay [2] (IC50) was put at 55 nM. Take `Clc1ccc(N2CCC(N3CCCC3)CC2)cc1-c1nc2ccccc2[nH]1`: the IC50 in assay [3] was 23 nM. As to `OCCNc1nc(N2CCN(c3ccccc3)CC2)nc2ccccc12`, the IC50 in assay [1] was under 10000 nM. For `O=C(NN1CCN(c2nc(-c3ccc4ccccc4n3)no2)CC1)C1CCC(F)(F)CC1`, it took 25 nM to reach half-maximal inhibition on Sonic hedgehog protein [4] (IC50). Still for that read-out and setting: then `O=C(NN1CCN(c2nc(-c3cnc4ccccc4n3)no2)CC1)C1CCCCC1`, with 5 nM. A word on the GI50: it is the concentration that inhibits growth by half. Compound `CN(C)c1ccccc1CN1CCCN(Cc2ccccc2N(C)C)C1c1ccncc1` had a GI50 in [5] of 5820 nM. In turn, `Cc1c(Cc2ccccc2)nnc(N2CCN(c3cnc(C(C)(C)O)cn3)[C@H](C)C2)c1C` [LEQ506] gave an IC50 on Protein smoothened of under 100 nM.

With `COc1ccc(OC)c2c1cc1n2CC(C)(C(=O)NC2CCCCCCC2)N(CCN(C)C)C1=O` (centres undefined), in assay [1], the IC50 is under 10000 nM. Take `C=C1CC[C@H](O)C/C1=C/C=C1\CCC[C@]2(C)[C@@H]([C@H](C)CCCC(C)C)CC[C@@H]12` [CHOLECALCIFEROL]: the Activity entry in assay [6] is “<=90%”.

With `CCC(C)CNCC(=O)N1CCc2sccc2C1COc1cccc(C)c1` (centres undefined), the IC50 against Sonic hedgehog protein [7] and at Sonic hedgehog protein [8] was 10000 nM in each case.

As a reminder, the EC50 is the concentration needed to bring the measured effect to its halfway point. The compound `CC1=C2C[C@H]3[C@@H](CCC4=CC(=O)CC[C@@]43C)[C@@H]2CC[C@@]2(C1)O[C@@H]1C[C@H](C)CN[C@H]1[C@H]2C` gave an EC50 in assay [9] of 200 nM.
